Measurements as given in the NIST ThermoML archive (doi:10.1016/j.jct.2016.08.005).
Numbers after ± are expanded uncertainties.

Conditions: Liquid, Vibrating tube method

For Cc1ccsc1 [3-methylthiophene], the mass density (283.15 K, 100 kPa) was 1031.82 ± 0.51 kg/m3, the mass density (283.15 K, 2000 kPa) was 1033.26 ± 0.51 kg/m3 and the mass density (283.15 K, 5000 kPa) was 1035.47 ± 0.51 kg/m3. For the same compound, the mass density (283.15 K, 7000 kPa) was 1036.93 ± 0.51 kg/m3, the mass density (283.15 K, 10000 kPa) was 1039.07 ± 0.51 kg/m3 and the mass density (283.15 K, 15000 kPa) was 1042.56 ± 0.51 kg/m3. It also gave a mass density (283.15 K, 20000 kPa) of 1045.93 ± 0.52 kg/m3, a mass density (283.15 K, 25000 kPa) of 1049.2 ± 0.52 kg/m3 and a mass density (283.15 K, 30000 kPa) of 1052.37 ± 0.52 kg/m3. For the same compound, the mass density (283.15 K, 35000 kPa) was 1055.46 ± 0.53 kg/m3, the mass density (283.15 K, 40000 kPa) was 1058.46 ± 0.53 kg/m3 and the mass density (283.15 K, 45000 kPa) was 1061.37 ± 0.54 kg/m3. The mass density (283.15 K, 50000 kPa) was 1064.22 ± 0.54 kg/m3, the mass density (283.15 K, 55000 kPa) was 1066.97 ± 0.55 kg/m3 and the mass density (283.15 K, 60000 kPa) was 1069.67 ± 0.56 kg/m3. For the same compound, the mass density (283.15 K, 65000 kPa) was 1072.32 ± 0.57 kg/m3, the mass density (288.15 K, 100 kPa) was 1026.57 ± 0.51 kg/m3 and the mass density (288.15 K, 2000 kPa) was 1028.05 ± 0.51 kg/m3. The mass density (288.15 K, 5000 kPa) was 1030.34 ± 0.51 kg/m3, the mass density (288.15 K, 7000 kPa) was 1031.84 ± 0.51 kg/m3 and the mass density (288.15 K, 10000 kPa) was 1034.03 ± 0.51 kg/m3. For the same compound, the mass density (288.15 K, 15000 kPa) was 1037.61 ± 0.51 kg/m3, the mass density (288.15 K, 20000 kPa) was 1041.07 ± 0.51 kg/m3 and the mass density (288.15 K, 25000 kPa) was 1044.41 ± 0.52 kg/m3. The mass density (288.15 K, 30000 kPa) was 1047.65 ± 0.52 kg/m3, the mass density (288.15 K, 35000 kPa) was 1050.8 ± 0.52 kg/m3 and the mass density (288.15 K, 40000 kPa) was 1053.86 ± 0.53 kg/m3. It also gave a mass density (288.15 K, 45000 kPa) of 1056.84 ± 0.53 kg/m3, a mass density (288.15 K, 50000 kPa) of 1059.74 ± 0.54 kg/m3 and a mass density (288.15 K, 55000 kPa) of 1062.56 ± 0.55 kg/m3. It also gave a mass density (288.15 K, 60000 kPa) of 1065.32 ± 0.56 kg/m3, a mass density (288.15 K, 65000 kPa) of 1068.01 ± 0.56 kg/m3 and a mass density (293.15 K, 100 kPa) of 1021.31 ± 0.51 kg/m3. For the same compound, the mass density (293.15 K, 2000 kPa) was 1022.81 ± 0.51 kg/m3, the mass density (293.15 K, 5000 kPa) was 1025.16 ± 0.51 kg/m3 and the mass density (293.15 K, 7000 kPa) was 1026.7 ± 0.51 kg/m3. It also gave a mass density (293.15 K, 10000 kPa) of 1028.95 ± 0.51 kg/m3, a mass density (293.15 K, 15000 kPa) of 1032.61 ± 0.51 kg/m3 and a mass density (293.15 K, 20000 kPa) of 1036.16 ± 0.51 kg/m3. For the same compound, the mass density (293.15 K, 25000 kPa) was 1039.6 ± 0.52 kg/m3, the mass density (293.15 K, 30000 kPa) was 1042.92 ± 0.52 kg/m3 and the mass density (293.15 K, 35000 kPa) was 1046.15 ± 0.52 kg/m3. It also gave a mass density (293.15 K, 40000 kPa) of 1049.27 ± 0.53 kg/m3, a mass density (293.15 K, 45000 kPa) of 1052.31 ± 0.53 kg/m3 and a mass density (293.15 K, 50000 kPa) of 1055.28 ± 0.54 kg/m3. It also gave a mass density (293.15 K, 55000 kPa) of 1058.15 ± 0.54 kg/m3, a mass density (293.15 K, 60000 kPa) of 1060.96 ± 0.55 kg/m3 and a mass density (293.15 K, 65000 kPa) of 1063.7 ± 0.56 kg/m3. It also gave a mass density (298.15 K, 100 kPa) of 1016 ± 0.51 kg/m3, a mass density (298.15 K, 2000 kPa) of 1017.57 ± 0.51 kg/m3 and a mass density (298.15 K, 5000 kPa) of 1019.98 ± 0.51 kg/m3. The mass density (298.15 K, 7000 kPa) was 1021.56 ± 0.51 kg/m3, the mass density (298.15 K, 10000 kPa) was 1023.89 ± 0.51 kg/m3 and the mass density (298.15 K, 15000 kPa) was 1027.64 ± 0.51 kg/m3. It also gave a mass density (298.15 K, 20000 kPa) of 1031.29 ± 0.51 kg/m3, a mass density (298.15 K, 25000 kPa) of 1034.81 ± 0.51 kg/m3 and a mass density (298.15 K, 30000 kPa) of 1038.2 ± 0.52 kg/m3. For the same compound, the mass density (298.15 K, 35000 kPa) was 1041.52 ± 0.52 kg/m3, the mass density (298.15 K, 40000 kPa) was 1044.71 ± 0.52 kg/m3 and the mass density (298.15 K, 45000 kPa) was 1047.82 ± 0.53 kg/m3. For the same compound, the mass density (298.15 K, 50000 kPa) was 1050.84 ± 0.53 kg/m3, the mass density (298.15 K, 55000 kPa) was 1053.78 ± 0.54 kg/m3 and the mass density (298.15 K, 60000 kPa) was 1056.65 ± 0.55 kg/m3. For the same compound, the mass density (298.15 K, 65000 kPa) was 1059.43 ± 0.55 kg/m3, the mass density (303.15 K, 100 kPa) was 1010.72 ± 0.51 kg/m3 and the mass density (303.15 K, 2000 kPa) was 1012.32 ± 0.51 kg/m3. For the same compound, the mass density (303.15 K, 5000 kPa) was 1014.81 ± 0.51 kg/m3, the mass density (303.15 K, 7000 kPa) was 1016.43 ± 0.51 kg/m3 and the mass density (303.15 K, 10000 kPa) was 1018.83 ± 0.51 kg/m3. The mass density (303.15 K, 15000 kPa) was 1022.7 ± 0.51 kg/m3, the mass density (303.15 K, 20000 kPa) was 1026.42 ± 0.51 kg/m3 and the mass density (303.15 K, 25000 kPa) was 1030.01 ± 0.51 kg/m3. For the same compound, the mass density (303.15 K, 30000 kPa) was 1033.5 ± 0.52 kg/m3, the mass density (303.15 K, 35000 kPa) was 1036.87 ± 0.52 kg/m3 and the mass density (303.15 K, 40000 kPa) was 1040.16 ± 0.52 kg/m3. It also gave a mass density (303.15 K, 45000 kPa) of 1043.34 ± 0.53 kg/m3, a mass density (303.15 K, 50000 kPa) of 1046.42 ± 0.53 kg/m3 and a mass density (303.15 K, 55000 kPa) of 1049.41 ± 0.54 kg/m3. It also gave a mass density (303.15 K, 60000 kPa) of 1052.33 ± 0.54 kg/m3, a mass density (303.15 K, 65000 kPa) of 1055.16 ± 0.55 kg/m3 and a mass density (308.15 K, 100 kPa) of 1005.4 ± 0.51 kg/m3. The mass density (308.15 K, 2000 kPa) was 1007.04 ± 0.51 kg/m3, the mass density (308.15 K, 5000 kPa) was 1009.61 ± 0.51 kg/m3 and the mass density (308.15 K, 7000 kPa) was 1011.27 ± 0.51 kg/m3. It also gave a mass density (308.15 K, 10000 kPa) of 1013.72 ± 0.51 kg/m3, a mass density (308.15 K, 15000 kPa) of 1017.69 ± 0.51 kg/m3 and a mass density (308.15 K, 20000 kPa) of 1021.53 ± 0.51 kg/m3. The mass density (308.15 K, 25000 kPa) was 1025.22 ± 0.51 kg/m3, the mass density (308.15 K, 30000 kPa) was 1028.73 ± 0.51 kg/m3 and the mass density (308.15 K, 35000 kPa) was 1032.24 ± 0.52 kg/m3. It also gave a mass density (308.15 K, 40000 kPa) of 1035.59 ± 0.52 kg/m3, a mass density (308.15 K, 45000 kPa) of 1038.84 ± 0.52 kg/m3 and a mass density (308.15 K, 50000 kPa) of 1041.98 ± 0.53 kg/m3. For the same compound, the mass density (308.15 K, 55000 kPa) was 1045.05 ± 0.53 kg/m3, the mass density (308.15 K, 60000 kPa) was 1048.03 ± 0.54 kg/m3 and the mass density (308.15 K, 65000 kPa) was 1050.91 ± 0.54 kg/m3.
